In patent publication US10563214B2, “Use of micropeptides for promoting plant growth” (UNIVERSITE TOULOUSE III-PAUL SABATIER, priority 2014, dated 2020):
Entries after “also recorded” stand apart in the source; their conditions may differ.

Legend:
miR164a = assay: Northern blot analysis of the accumulation of miR164a in roots treated with synthetic peptide; type: in vivo, Arabidopsis thaliana; details: 0.1 μM synthetic peptide solubilized in water vs water control, U6 loading control, FIG. 1
Protocol: The photographs show the results of a Northern blot analysis of the accumulation of miR164a in roots treated with water (control, photograph on the left) or with 0.1 μM of a synthetic peptide, having a sequence identical to that of miPEP164a, solubilized in water (0.1 μM miPEP164a). The RNA U6 is used as a loading control, allowing the quantity of miR164a to be quantified.
The A. thaliana Col-0 plants are cultivated on MS basic medium supplemented with 10 g/l of sucrose.
Northern blot analysis was carried out according to the protocol described in Lauressergues et al. Plant J, 72(3):512-22, 2012.
The biological samples were homogenized in a buffer containing 0.1 M of NaCl, 2% SDS, 50 mM of Tris-HCl (pH 9), 10 mM of EDTA (pH 8) and 20 mM of mercaptoethanol, and the RNA was extracted twice with a phenol/chloroform mixture and precipitated with ethanol.
The RNA was loaded on PAGE 15% gel and transferred onto a nylon membrane (HybondNX, Amersham). The RNA was hybridized with an oligonucleotide probe, with radioactive labelling at its end, for detecting the RNA U6 or for miR164a.
The hybridizations were carried out at 55° C. The hybridization signals were quantified using a phosphorimager (Fuji) and normalized with the signal of the probe specific to the RNA U6.

Arabidopsis thaliana [1] = assay: A. thaliana growth test, watering with miPEP164a; type: in vivo; details: watered and sprayed
Protocol: Watering was carried out every 2-3 days with water for the control plants and with water containing 0.1 μM or 1 μM of synthetic peptide (the sequence of which is identical to miPEP164a or to miPEP165a) for the test plants.

AtmiR319a = assay: qPCR of AtmiR319a relative expression in plants overexpressing AtmiPEP319a; type: in vivo, Arabidopsis thaliana; details: plant overexpressing AtmiPEP319a (35S promoter) vs control plant; n=10; FIG. 7
Protocol: The error bar corresponds to the standard error of the mean (number of individuals=10).
The RNA was extracted using the reagent Tri-Reagent (MRC) according to the manufacturer's instructions, apart from precipitation of the RNA, which was carried out with 3 volumes of ethanol. Reverse transcription of the RNA was carried out using the stem-loop specific primer RTprimer in combination with hexamers in order to carry out reverse transcription of RNA of high molecular weight. Briefly, 1 μg of RNA was added to the stem-loop specific primer (0.2 μM), hexamer (500 ng), buffer RT (1×), the enzyme SuperScript Reverse transcriptase (SSIII) (one unit), dNTPs (0.2 mM each), DTT (0.8 mM) in a final reaction mixture of 25 μl. In order to carry out the reverse transcription, a pulsed reverse transcription reaction was carried out (40 repetitions of the following cycle: 16° C. for 2 minutes, 42° C. for one minute and 50° C. for one second, followed by final inactivation of the reverse transcription at 85° C. for 5 minutes).
The total RNA of the roots of M. truncatula or of the leaves of tobacco was extracted using the extraction kit RNeasy Plant Mini Kit (Qiagen). Reverse transcription was carried out using the reverse transcriptase SuperScript II (Invitrogen) starting from 500 ng of total RNA. Three repetitions (n=3) were carried out, each with two technical repetitions. […]

Arabidopsis thaliana [2] = assay: A. thaliana growth test, watering and spraying with miPEP319a; type: in vivo; details: 0.1 μM synthetic peptide, watered and sprayed, after 3 weeks of growth vs water control; FIG. 8
Protocol: Arabidopsis thaliana seeds were germinated on GiFi, and then were transferred onto compost and were grown for 3 weeks.
Watering was carried out every 2-3 days and spraying was carried out every day, with water for the control plants and with water containing 0.1 μM of synthetic peptide (the sequence of which is identical to miPEP319a) for the test plants.

[3] = 1 μM synthetic peptide, after 39 days of growth vs water control, FIG. 3

## miPEP164a: Peptide encoded by miORF on pri-miR164a of A. thaliana, SEQ ID NO: 2, MPSWHGMVLLPYVKHTHASTHTHTHNIYGCACELVFH (listed as Arabidopsis thaliana)
miR164a
  accumulation of miR164a: increase in the accumulation of miR164a
Arabidopsis thaliana [1]; 0.1 μM synthetic peptide, after 3 weeks of growth vs water control, FIG. 2
  plant growth: increases the plant's growth significantly; also recorded: increases the plants' growth significantly
Arabidopsis thaliana [1]; [3]
  number of flowers: increases the plant's growth and number of flowers significantly
  plant growth: increases the plant's growth and number of flowers significantly

## miPEP319a: Peptide encoded by miORF on pri-miR319a of A. thaliana, SEQ ID NO: 10, MNIHTYHHLLFPSLVFHQSSDVPNALSLHIHTYEYIIVVIDPFRITLAFR (listed as Arabidopsis thaliana)
AtmiR319a
  accumulation (relative expression) of AtmiR319a: increase in the accumulation of Atmir319a
Arabidopsis thaliana [2]
  plant growth: increases the plant's growth significantly
